Measurements from PMC4669414 (Scientific Reports, 2015).
One block for each molecule: values may come before it.

Key:
[1] = system: PC9/G cells; experiment: MTT cell growth inhibition assay in PC9/G cells; details: 72 h; for effect on cell viability when combined with Gef + Res treatment: 3-MA 5 mM or DEVD 10 nM with Gef 1 μM + Res 40 μM
Experimental: Cell viability was measured by MTT assay. Data are shown as means ± SD of three independent experiments. […] Then, cell viability, apoptosis, autophagy and senescence were detected as described in the Materials and methods. […] Res: Resveratrol; 3-MA: 3-methyladenine; DEVD: Ac-DEVD-CHO. The antiproliferative effects of the treatments were evaluated using the MTT assay. Cells were seeded at a density of 4 × 10^3 cells/well in 96-well plates. […] Then, MTT assays were performed as described previously. […] The different drug doses were combined using constant ratios of the IC50 values calculated from the previous cytotoxicity tests. […] The effects of different drug combinations were evaluated using the CompuSyn software (Biosoft, Ferguson, MO, USA) based on the median effect model of Chou and Talay[43].

[2] = system: PC9/G cells; experiment: Annexin V-FITC/PI apoptosis assay by flow cytometry; type: cell-based, human; details: Gef 1 μM alone or combined with Res 40 μM, 72 h
Experimental: (§1) Figure 4 Res enhanced Gef-induced apoptosis, autophagy, G2/M phase cell cycle arrest, and senescence in PC9/G cells. […] (A) Morphological changes in PC9/G cells including nuclei condensation and fragmentation (arrow) were observed by DAPI staining under a fluorescence microscope. (B) Annexin V-FITC/PI staining assay of PC9/G cells was analysed by flow cytometry. (C) Autophagy was detected by MDC staining, and (D) fluorescence intensity was detected by flow cytometry. (E) Cells were stained with PI, and then the DNA content was analysed by flow cytometry. Sub-G1, G1, S and G2/M indicate different cell cycle phases. (F) Cells were stained for SA-β-Gal activity. The percentage of senescent cells in PC9/G cells was measured. Magnification: 200× .
For apoptosis analysis, cells were washed twice with 1× binding buffer then labelled with Annexin V and propidium iodide (PI) following the manufacturer’s instructions. The Apoptosis Analysis Kit was ordered from Tianjin Sungene Biotech (Tianjing, China). For cell cycle analysis, cells were washed twice with ice-cold PBS and fixed with 70% ethanol at −20 °C overnight. […] The analysis of the samples was performed by flow cytometry (Becton-Dickinson, San Jose, CA, USA), and the acquired data were analysed with the CellQuest software (BD Biosciences).

[3] = system: PC9/G cells; experiment: SA-β-gal senescence assay; type: cell-based, human; details: Gef 1 μM alone or combined with Res 40 μM, 72 h
Experimental: as §1
Cell senescence was measured following the manufacturer’s protocol of the SA-β-gal assay kit. According to the protocol, cells were fixed with 2% paraformaldehyde for 15 min at room temperature and then incubated with fresh SA-β-gal stain solution in the dark at 37 °C overnight. SA-β-gal-positive cells were quantified by counting stained and unstained cells, and the result is presented as the ratio of SA-β-gal-positive cells over the total cells counted.

[4] = system: PC9 cells; experiment: MTT cell growth inhibition assay in PC9 cells; type: cell-based; details: Homo sapiens, PC-9, single drug, 72 h
Experimental: Then, MTT assays were performed as described previously.

[5] = system: HCC827 cells; experiment: MTT cell growth inhibition assay in HCC827 cells; type: cell-based; details: Homo sapiens
Experimental: (§2) The antiproliferative effects of the treatments were evaluated using the MTT assay. Cells were seeded at a density of 4 × 10^3 cells/well in 96-well plates. […] Then, MTT assays were performed as described previously.
(§3) are shown as means ± SD of three independent experiments.

[6] = system: HCC827/G cells; experiment: MTT cell growth inhibition assay in HCC827/G cells; type: cell-based; details: Homo sapiens
Experimental: as §2, §3

[7] = system: A549 cells; experiment: MTT cell growth inhibition assay in A549 cells; type: cell-based; details: Homo sapiens
Experimental: as §2, §3

[8] = system: H1975 cells; experiment: MTT cell growth inhibition assay in H1975 cells; type: cell-based; details: Homo sapiens, NCI-H1975
Experimental: as §2, §3

[9] = system: H1299 cells; experiment: MTT cell growth inhibition assay in H1299 cells; type: cell-based; details: Homo sapiens, NCI-H1299
Experimental: as §2, §3

Molecule: Ac-DEVD-CHO
toxic effect on cell viability, alone ([1]; PC9/G cells, 3-MA 5 mM or DEVD 10 nM alone): no toxic effects
effect on cell viability when combined with Gef + Res treatment ([1]; PC9/G cells): no effect

Molecule: COc1cc2ncnc(Nc3ccc(F)c(Cl)c3)c2cc1OCCCN1CCOCC1 [Gef, Gefitinib]
apoptosis rate [2]: 9.77 ± 2.96
proportion of SA-β-gal-positive cells [3]: 11.4 ± 1.6%

IC50 ([1]; Homo sapiens): 33.9 ± 1.6 µM
IC50 [4]: 82.5 ± 10 µM
IC50 [5]: 73.4 ± 4.32 µM
IC50 [6]: 42.9 ± 3.54 µM
IC50 [7]: 72.4 ± 2.76 µM
IC50 [8]: 74.6 ± 2.03 µM
IC50 [9]: 88.8 ± 1.62 µM
Molecule: Oc1ccc(/C=C/c2cc(O)cc(O)c2)cc1 [Res, Resveratrol]

Molecule: Cn1cnc(N)c2ncnc1-2 [3-MA, 3-methyladenine]
effect on cell viability when combined with Gef + Res treatment ([1]; PC9/G cells): significantly potentiated the reduction of cell viability
